In patent US5821046A, “RNA oligonucleotides that bind HIV tat protein” (RiboTargets Holdings PLC, priority 1990, dated 1998):
“Also recorded” adds a separate entry of the source. Read-outs that look alike come from different tables or passages of the source. [4sT] = 4-thio-2'-deoxythymidine; [5BrU] = 5-bromo-2'-deoxyuridine; d = 2'-deoxy (DNA); r = 2'-OH (RNA)

Columns and labels:
tat protein = assay: competition filter binding assay with chemically synthesized RNA (Table 4); parameters: species or system HIV-1; conditions: for IC50: 40 nM tat, read-out: D1/2; for competition for tat binding compared with unmodified RNA: competition filter binding, FIGS. 19, 21-24, 26; for drop in D1/2 compared with unmodified duplex: modified 17-mer + 14-mer duplex
Method: Competition binding reactions (0.5ml) in TK buffer (50 mM Tris.HCl(pH7.9 at 0.5M and 22° G), 20 mM KCl ) included 10nM ^32 p labeled 59-mer (ca. 20,000 cpm) , 40nM tat protein, 5 ug/ml calf thymus DNA, 2 ug/ml yeast tRNA, 40 units of RNAsin (Promega) and varying concentrations (0-300 nM) of unlabeled competitor RNA (59-mer [SEQ ID NO: 1; ], 29-mer [SEQ ID NO: 12] or preannealed (slow cooled from 90° C.) 14-mer [SEQ ID NO: 14; nucleotides 2-15] and 17-mer [SEQ ID NO: 13; nucleotides 1- 17]). Binding was allowed to take place for 2-15 minutes on ice and each reaction was filtered through a twice prewashed (0.6 ml of ice-cold TK buffer) Millipore GS filter (2.5 cm disks, 0.22 um pore) and the filter washed with TK buffer (0.6 ml). Dried filters were counted by liquid scintillation. Results were plotted on a graph (FIG. 19) showing counts retained on the filter versus the concentration of competitor RNA added.
Competition binding reactions (0.5 ml) in TK buffer included 10 nM duplex formed from ^32 P-labeled and unlabeled 29-mer (ca. 20,000 cpm) or 10 nM duplex formed from ^32 P-labeled and unlabeled 17-mer annealed to unlabeled 14-mer, 40 nM tat protein, 5 ug/ml calf thymus DNA, 2 ug/ml yeast tRNA and varying concentrations (0-120 nM) of unlabeled competitor RNA (29-mer or modified 29-mer (FIG. 21), or 17-mer +14-mer duplex or modified 7-mer +14-mer duplex (22, 23 and 24) and were carried out as described above.
Competition binding reactions (0-5 ml) in TK buffer included 10 nM duplex formed from ^32 P-labelled (ca. 20,000 cpm) and unlabelled 18-mer [SEQ ID NO: 13] annealed to unlabelled 15-mer [SEQ ID NO: 14], 40 nM tat protein, 5 ug/ml calf thymus DNA, 2 ug/ml yeast TRNA and varying concentrations (0-120 nM) of unlabelled competitor RNA (59-mer [SEQ ID NO: 1] or 18-mer [SEQ ID NO: 13]+15-mer [SEQ ID NO: 14] duplex, or modified 18-mer [SEQ ID NO: […]

HIV-1 Tat = HIV-1 Tat (Human immunodeficiency virus 1, UniProt P04608 P04608:1-86); assay: competition; D1/2; wild type 90 nM
[1] = 32P-end labelled 18-mer annealed to 15-mer
[2] = 32P-end labelled 18-mer annealed to 15-mer 10 nM, competitor 0-120 nM
[3] = relative to 14 +17 duplex, 32P-end labelled 18-mer annealed to 15-mer
[4] = 32P-end-labeled 17-mer annealed to 14-mer 10 nM, competitor 0-120 nM (dT series)
[5] = relative to 14 +17 duplex, 32P-end-labeled 17-mer annealed to 14-mer
[6] = BrdU series, relative to 14 +17 duplex
[7] = BrdU series, 32P-end-labelled 29-mer 10 nM, competitor 0-120 nM
[8] = 32P-end-labelled 29-mer 10 nM, competitor 0-120 nM
[9] = relative to 29-mer, 32P-end-labelled 29-mer 10 nM
[10] = 32P-labeled 59-mer transcript 10 nM

15 +18: duplex of unmodified 18-mer [SEQ ID NO: 13] and 15-mer [SEQ ID NO: 14] containing a U-rich bulge (chain 1 AGCCAGAUUUGAGCAGCU; chain 2 AGCUGCUCUCUGGCU; RNA, phosphodiester; duplex with U-rich bulge)
Krel (59-mer) (tat protein; [1]): 0.3
IC50 (tat protein; [2]): 65 nM
competition for tat binding compared with unmodified RNA (tat protein): competed as well as 17-mer
Krel (29 or 14 +17) (tat protein; [3]): 0.8

4-thioT-24: 15-mer annealed to 18-mer where U24 is replaced by 4-thio-2'-deoxythymidine (AGCCAGAUTUGAGCAGCU; sugars from the 5' end r8 d1 r9, [4sT] at 9, backbone not given here; annealed to 15-mer strand)
Krel (59-mer) (tat protein; [1]): 0.7
IC50 (tat protein; [2]): 25 nM
competition for tat binding compared with unmodified RNA (tat protein): competes for binding better than unsubstituted duplex
Krel (29 or 14 +17) (tat protein; [3]): 2.0

dT-24: 14-mer annealed to 17-mer where U24 is replaced by 2'-deoxythymidine (AGCCAGAUNUGAGCAGC; 2'-deoxythymidine at 24, annealed 14-mer without entry, chemistry not fully specified)
IC50 (tat protein; [4]): 30 nM
competition for tat binding compared with unmodified RNA (tat protein): no effect on competition
competition for tat binding compared with unmodified RNA (tat protein; listed as SEQ ID NO: 18): competes for tat binding as well as unmodified duplex
Krel (29 or 14 +17) (tat protein; [5]): 1.2

dT-23: 14-mer annealed to 17-mer where U23 is replaced by 2'-deoxythymidine (AGCCAGANUUGAGCAGC; 2'-deoxythymidine at 23, annealed 14-mer without entry, chemistry not fully specified)
IC50 (tat protein; [4]): 35 nM
competition for tat binding compared with unmodified RNA (tat protein): no effect on competition
competition for tat binding compared with unmodified RNA (tat protein; listed as SEQ ID NO: 17): competes for tat binding as well as unmodified duplex
Krel (29 or 14 +17) (tat protein; [5]): 1.1

BrdU-23: 14-mer annealed to 17-mer where U23 is replaced by 5-bromo-2'-deoxyuridine (AGCCAGAUUUGAGCAGC; DNA at 8, [5BrU] at 8, other sugars and backbone not given here; annealed to a 14-mer strand, further chemistry not fully specified)
Krel (29 or 14 +17) (tat protein; [6]): 0.6
IC50 (tat protein; [7]): 70 nM
competition for tat binding compared with unmodified RNA (tat protein): competes for tat binding less well
drop in D1/2 compared with unmodified duplex (tat protein): 2 fold

dT-25: 14-mer annealed to 17-mer where U25 is replaced by 2'-deoxythymidine (AGCCAGAUUNGAGCAGC; 2'-deoxythymidine at 25, annealed 14-mer without entry, chemistry not fully specified)
IC50 (tat protein; [4]): 90 nM
competition for tat binding compared with unmodified RNA (tat protein): competes less well compared to unmodified duplex
drop in D1/2 compared with unmodified duplex (tat protein): 2-3 fold
Krel (29 or 14 +17) (tat protein; [5]): 0.4

BrdU-24: 14-mer annealed to 17-mer where U24 is replaced by 5-bromo-2'-deoxyuridine (AGCCAGAUUUGAGCAGC; DNA at 9, [5BrU] at 9, other sugars and backbone not given here; annealed to a 14-mer strand, further chemistry not fully specified)
Krel (29 or 14 +17) (tat protein; [6]): 1.0
IC50 (tat protein; [7]): 45 nM
competition for tat binding compared with unmodified RNA (tat protein): no effect on competition
competition for tat binding compared with unmodified RNA (tat protein; listed as SEQ ID NO: 21): competes as well compared to unsubstituted duplex

BrdU-25: 14-mer annealed to 17-mer where U25 is replaced by 5-bromo-2'-deoxyuridine (AGCCAGAUUUGAGCAGC; sugars from the 5' end r9 d1 r7, [5BrU] at 10, backbone not given here; annealed to 14-mer strand)
Krel (29 or 14 +17) (tat protein; [6]): 1.1
IC50 (tat protein; [7]): 35 nM
competition for tat binding compared with unmodified RNA (tat protein): no effect on competition
competition for tat binding compared with unmodified RNA (tat protein; listed as SEQ ID NO: 22): competes for tat binding as well compared to unsubstituted duplex

2'-OmeU-23: chemically synthesized 29-mer where U23 is replaced by 2'-O-methyluridine (GCCAGANUUGAGCCUGGGAGCUCUCUGGC; 2'-O-methyluridine at U23, chemistry not fully specified)
IC50 (tat protein; [8]): 50 nM
competition for tat binding compared with unmodified RNA (tat protein; listed as SEQ ID NO: 16): competed as well as as unmodified 29-mer; also recorded: competes for tat binding as well as unmodified 29-mer
Krel (29 or 14 +17) (tat protein; [9]): 1.2

dU-23: chemically synthesized 29-mer where U23 is replaced by 2'-deoxyuridine (GCCAGANUUGAGCCUGGGAGCUCUCUGGC; 2'-deoxyuridine at 23, chemistry not fully specified)
IC50 (tat protein; [8]): 55 nM
competition for tat binding compared with unmodified RNA (tat protein; listed as SEQ ID NO: 15): competed as well as as unmodified 29-mer; also recorded: competes for tat binding as well as unmodified 29-mer
Krel (29 or 14 +17) (tat protein; [9]): 1.1

4-thioT-25: 15-mer annealed to 18-mer where U25 is replaced by 4-thio-2'-deoxythymidine (AGCCAGAUUTGAGCAGCU; DNA at 10, [4sT] at 10, other sugars and backbone not given here; annealed to a 15-mer strand, further chemistry not fully specified)
Krel (59-mer) (tat protein; [1]): 1.5
IC50 (tat protein; [2]): 12 nM
competition for tat binding compared with unmodified RNA (tat protein; listed as SEQ ID NO: 25): competes for binding better than unsubstituted duplex; also recorded: competes as well as unmodified 59-mer
Krel (29 or 14 +17) (tat protein; [3]): 4.2

r(GCCAGAUUUGAGCCUGGGAGCUCUCUGGC) (RNA, backbone not given here) [29-mer, chemically synthesized 29-mer, top part of TAR including loop and U-rich bulge]
IC50 (tat protein; [8]): 60 nM
Krel (59-mer) (tat protein; [10]): 0.4
increase in D1/2 compared with 59-mer (tat protein; [10]): 2-3 fold
IC50 (tat protein; 32P-labeled 59-mer transcript 10 nM, competitor 0-300 nM): 100 nM
competition for tat binding compared with unmodified RNA (tat protein): competes for binding to tat almost as well as a 59-mer RNA transcript
Krel (29 or 14 +17) (tat protein; [9]): 1.0

B1: TAR bulge U (ssRNA)
RNA: GGGUCUCUCUGGUUAGACCAGAUGAGCCUGGGAGCUCUCUGGCUAACUAGGGAACCC
modifications: [23-25]
IC50 (HIV-1 Tat): 673 nM

B2: TAR bulge CC (ssRNA)
RNA: GGGUCUCUCUGGUUAGACCAGACCGAGCCUGGGAGCUCUCUGGCUAACUAGGGAACCC
IC50 (HIV-1 Tat): 2370 nM

B3: TAR bulge CUU (ssRNA)
RNA: GGGUCUCUCUGGUUAGACCAGACUUGAGCCUGGGAGCUCUCUGGCUAACUAGGGAACCC
modifications: [23]
IC50 (HIV-1 Tat): 630 nM

B4: TAR U40 to A40 (ssRNA)
RNA: GGGUCUCUCUGGUUAGACCAGAUUUGAGCCUGGGAGCUCACUGGCUAACUAGGGAACCC
IC50 (HIV-1 Tat): 5620 nM

B5: TAR bulge CUC (ssRNA)
RNA: GGGUCUCUCUGGUUAGACCAGACUCGAGCCUGGGAGCUCUCUGGCUAACUAGGGAACCC
modifications: [23,25]
IC50 (HIV-1 Tat): 2140 nM

B6: TAR bulge CCC (ssRNA)
RNA: GGGUCUCUCUGGUUAGACCAGACCCGAGCCUGGGAGCUCUCUGGCUAACUAGGGAACCC
modifications: [23,24,25]
IC50 (HIV-1 Tat): 1780 nM

B7: TAR bulge CCU (ssRNA)
RNA: GGGUCUCUCUGGUUAGACCAGACCUGAGCCUGGGAGCUCUCUGGCUAACUAGGGAACCC
modifications: [23,24]
IC50 (HIV-1 Tat): 1330 nM
